Experiment in all cases: NCI anticancer screen, dose series, 48 h
In experiment [1] the test system is SW-620 colon.
For experiment [2], the system named is OVCAR-4 ovarian.
Experiment [3] has as its system MOLT-4 leukemia.
The test system of experiment [4] is SNB-19 CNS.
The subject of experiment [5] is NCI-H23 lung.
Experiment [6] relates to 786-0 renal.
In experiment [7] the test system is SNB-75 CNS.
The subject of experiment [8] is SR leukemia.
Experiment [9] relates to PC-3 prostate.
Experiment [10] has as its system MDA-N.
The subject of experiment [11] is HS 578T breast.

SMILES strings stand for the structures.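 Five compound concentrations were applied to cells in 96-well plates for 48 hours; endpoints were derived by simple linear interpolation of the resulting dose-response curve. GI50 is the concentration that inhibits growth by half. At the TGI there is no net growth.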

Regarding `O=C(c1ccccc1)[C@H]1Nc2cnccc2C2c3ccccc3CC21` (stereo partly drawn), the TGI in experiment [1] is 47.3 µM; in experiment [2], over 76.9 µM; in experiment [3], 23.1 µM; in [4], over 100 µM; in experiment [5] it was 30.6 µM; in experiment [6], over 67 µM. Moreover, the TGI in experiment [7] was determined as 71.9 µM; in experiment [8], 61.6 µM.

With `CC1=CCC[C@H]2[C@](C)(CC3=CC(=O)C4SCCSC4C3=O)[C@@H](C)CC[C@]12C` (stereo partly drawn), the TGI in experiment [1] was 65.6 µM; in [2] it was over 100 µM; in [3] it was 80.7 µM; in experiment [9] it was 49.4 µM; in experiment [4] it was 37.1 µM; in experiment [5], 31.9 µM. For the same compound, the TGI is 35 µM in [6], 80.8 µM in [7], 25.9 µM in experiment [10] and 53.6 µM in [8].

As for `NC(=S)N=Nc1c(O)cc(Nc2ccc(Cl)cc2Cl)c2ccccc12`, the TGI in experiment [1] is over 100 µM; in experiment [2], over 100 µM; in experiment [3], over 100 µM; in experiment [4] it was 88.6 µM; in [5], 97.7 µM; in experiment [6], 26.3 µM. For the same compound, the TGI was 78.5 µM in experiment [7] and over 100 µM in experiment [10].

`CN1c2ccccc2C(=O)NC12CCN(CC1COc3ccccc3O1)CC2` (stereo not drawn): the TGI was over 100 µM in [1]; over 100 µM in experiment [2]; 77.1 µM in experiment [3]; over 100 µM in [4]; over 100 µM in experiment [5]; over 100 µM in [11]. Further, the TGI in experiment [6], in experiment [7] and in experiment [8] was over 100 µM each time.

For `CCOC(=O)/C(=C/c1ccco1)P(=O)(OCC)OCC`, the TGI in [1], in experiment [2], in [3], in experiment [5], in experiment [6] and in experiment [7] was over 100 µM in each case. Besides, the TGI in [8] is over 100 µM.

On to `NC(CCSCC(F)F)C(=O)O` (stereo not drawn), for which the TGI in experiment [1], in [2], in [3], in [4], in experiment [5] and in experiment [6] was over 100 µM each time. The TGI in experiment [7] and in experiment [8] was over 100 µM throughout.

On to `OC(c1ccco1)C(F)(F)c1nc2ccccc2o1` (stereo not drawn), for which the TGI in experiment [1], in experiment [2], in experiment [3], in [9], in [4] and in experiment [5] was over 100 µM throughout. Moreover, the TGI in experiment [11], in experiment [6], in experiment [7] and in experiment [8] was over 100 µM in each case.

Turning to `CNc1ccc2c(c1)Cc1ccccc1-2`, the TGI in [1] is over 100 µM; in experiment [2], over 100 µM; in [3] it was 98.7 µM; in [9] it was over 100 µM; in experiment [4], over 100 µM; in experiment [5] it was over 100 µM. Besides, the TGI in experiment [11] is 91.5 µM; in [6], over 100 µM; in experiment [7] it was over 100 µM; in [8], 91.2 µM.

With `FC(F)=C(c1ccc(-c2ccc(Cl)cc2)cc1)C(F)(F)F`, the TGI in experiment [1] was 40.3 µM; in experiment [2], 33.5 µM; in [3], over 100 µM; in experiment [9], 32.5 µM; in experiment [4], 36.9 µM; in experiment [5], 35.4 µM. The TGI in [11] came to 68.7 µM; in experiment [6] it was 37.8 µM; in experiment [7], 25.6 µM; in [8], 52.4 µM.

As to `COC(=O)c1cc(C(=O)OC)cc(-c2ccc3c(c2)-c2nc4c(c(-c5ccc(OC)cc5)c2CC3)CCc2ccc(-c3cc(C(=O)OC)cc(C(=O)OC)c3)cc2-4)c1`, the TGI in experiment [2], in experiment [9], in experiment [4], in experiment [5], in experiment [6] and in experiment [7] was over 100 µM each time. This compound also registered a TGI in experiment [10] of over 100 µM.

Take `COc1ccc(CCCCl)c(C2=NCCc3ccccc32)c1`: the TGI in experiment [1], in experiment [2], in experiment [3], in experiment [9], in experiment [4] and in experiment [5] was over 100 µM throughout. Besides, the TGI in experiment [11], in [6], in experiment [7] and in experiment [8] was over 100 µM each time.

With `COc1ccc(/C=N/Nc2nc3ccccc3c(=O)n2-c2ccccc2)c(OCc2ccccc2)c1`, the TGI in experiment [1], in [2], in experiment [3], in experiment [9], in experiment [4] and in [5] was over 100 µM throughout. Besides, the TGI in experiment [11], in experiment [6], in experiment [7] and in experiment [8] was over 100 µM in each case. In addition, the GI50 in [11] and in experiment [7] was over 100 µM each time.

Consider `Cc1cc(C)nc(NS(=O)(=O)c2ccc(Nc3c4ccccc4nc4c(C(=O)N5CCN(CCOS(C)(=O)=O)CC5)ccc(Cl)c34)cc2)n1`, for which the TGI in [2], in experiment [3], in [4], in experiment [5], in experiment [6] and in [7] was over 100 µM each time. Further, the TGI in experiment [8] is over 100 µM.

For `O=C1c2c(c3c4ccc(Br)cc4oc3c3[nH]c4ccccc4c23)C(=O)N1O`, the GI50 in experiment [1] was 1.38 µM; in [3], 0.308 µM; in experiment [9] it was 1.3 µM; in experiment [4], 2.14 µM; in [5] it was 1.75 µM. For the same compound, the TGI was over 100 µM in experiment [1]; over 100 µM in [3]; over 100 µM in experiment [9]; over 100 µM in experiment [4]; 6.39 µM in experiment [5].

As for `CCC1(CC)C(=O)NC(=S)N=C1N`, the TGI in [1], in experiment [2], in experiment [3], in [4], in experiment [5] and in experiment [6] was over 100 µM in each case. In experiment [7], this compound showed a TGI of over 100 µM.

Consider `N#CC(C#N)=Cc1cccc(Oc2ccccc2)c1`, for which the TGI is 58.7 µM in experiment [1]; 78.7 µM in experiment [3]; 59.4 µM in experiment [4]; 22 µM in [5]; 34.2 µM in experiment [6]; over 94.9 µM in experiment [7]. The compound further had a TGI in [8] of 61.3 µM.

In the case of `COC(=O)/C(=N\NC(=S)NN)C(C(=O)C(=O)Nc1ccccc1C(N)=O)c1nc2ccccc2[nH]c1=O` (stereo not drawn), the TGI in [1], in experiment [2], in [3], in experiment [4], in experiment [5] and in [6] was over 100 µM throughout. Besides, the TGI in [8] is over 100 µM.

Take `O=C1CCn2c([nH]c3cccc4cccc2c43)=N1`: the TGI in experiment [1], in experiment [2], in [3], in experiment [4], in [5] and in experiment [6] was over 100 µM in each case. Further, the TGI in [7] and in experiment [8] was over 100 µM in each case.

`Brc1ccc2c(c1)-c1nc3c(cc1CC2)CCc1ccc(Br)cc1-3`: the TGI in experiment [1], in experiment [2], in experiment [3], in experiment [9], in experiment [4] and in experiment [5] was over 100 µM each time. Further, the TGI in experiment [6], in experiment [7] and in [10] was over 100 µM in each case.

With `O=C(NN1C(=O)CSC1c1ccc(Cl)c(Cl)c1)c1ccncc1` (stereo not drawn), the TGI in experiment [1], in [2], in experiment [3], in experiment [4], in experiment [5] and in experiment [7] was over 100 µM throughout.

Turning to `COC(=O)c1sc2ncc3c(c2c1N)CC(C)CC3` (stereo not drawn), the TGI in [1], in [2], in experiment [3], in experiment [9], in [4] and in [5] was over 100 µM throughout. For the same compound, the TGI in [6], in [7], in [10] and in [8] was over 100 µM each time.

For the compound `CCOC(=O)C(C)NC(=O)N(C)C12CC3CC(CC(C3)C1)C2` (stereo not drawn), the TGI in experiment [1] is 494 µM; in [2], over 472 µM; in experiment [3] it was 420 µM; in [4] it was over 500 µM; in experiment [5], 441 µM; in [7], 227 µM.

For the compound `C=C1CC2C(=O)N(c3ccccc3)C(=O)C2CC1n1[nH]c(=O)n(Cc2ccccc2)c1=O` (stereo not drawn), the TGI in [1], in [2], in [3], in [4], in [5] and in experiment [6] was over 100 µM each time. Further, the TGI in experiment [7] and in experiment [8] was over 100 µM each time.

On to `COC(=O)C(=O)C(C(=O)C(=O)Nc1cc([N+](=O)[O-])ccc1C#N)c1nc2ccccc2[nH]c1=O` (stereo not drawn), for which the TGI in [1], in experiment [2], in [3], in [4], in experiment [5] and in [6] was over 100 µM each time. Besides, the TGI in experiment [7] and in experiment [8] was over 100 µM in each case.

As to `NNC(=O)c1cccc2c1Oc1ccccc1S2`, the TGI in experiment [1], in experiment [2], in [3], in [9], in experiment [4] and in [5] was over 100 µM each time. Also, the TGI in [11], in experiment [6], in [7] and in experiment [8] was over 100 µM each time.

On to `CC1=NC(C)(C)N(O)C1(C)C`, for which the TGI in [1], in [2], in [3], in experiment [9], in experiment [4] and in experiment [5] was over 100 µM in each case. Further, the TGI in [6], in [7], in experiment [10] and in experiment [8] was over 100 µM in each case.

Take `COc1cc(/C=C/c2cc(=O)cc(/C=C/c3ccc(O)c(OC)c3)o2)ccc1O`: the TGI in [1], in [2], in experiment [3], in experiment [9], in [4] and in experiment [5] was over 100 µM in each case. The TGI is over 100 µM in experiment [11], over 100 µM in experiment [6], over 95 µM in experiment [7] and over 100 µM in [8].

On to `COc1ccc(/C=C/C(=O)c2sc(-n3nc(-c4ccccc4)cc3-c3ccccc3)nc2C)cc1OC`, for which the TGI is over 100 µM in [1]; over 100 µM in [2]; 64.8 µM in [3]; over 100 µM in [4]; over 100 µM in experiment [5]; over 100 µM in experiment [6]. The compound also displayed a TGI in [8] of 78.2 µM.

As to `Nc1nc(Nc2ccc(OCc3cccc(F)c3)cc2)c2c(n1)[nH]c1ccc(O)cc12`, the GI50 in [1] was 2.54 µM; in experiment [2], 2.18 µM; in experiment [3] it was 2.77 µM; in experiment [9], 3.71 µM; in [4] it was 4.4 µM; in [5], 4.12 µM. Also, the figures for the GI50 in experiment [11], in experiment [7] and in experiment [8] were 2.41 µM, 1.53 µM and 2.13 µM, respectively. Further, the TGI in [1] is 6.26 µM; in experiment [2], 6.04 µM; in [3], 8.34 µM; in experiment [9], 14.7 µM; in experiment [4] it was 21.7 µM; in [5], 22.2 µM. The TGI turned out to be 6.29 µM in [11], 3.01 µM in experiment [7] and 5.87 µM in [8].

Take `COc1cc(CCCOC2OC(COC3OCC(O)C(O)C3O)C(O)C(O)C2O)cc2cc(-c3ccc4c(c3)OCO4)oc12` (stereo not drawn): the TGI in [1], in [2], in experiment [3], in experiment [4], in [5] and in [7] was over 175 µM throughout.

Values taken from PubChem BioAssay (NCI).
